Data taken from patent publication US9855209B1, “Anti-bacterial mouthwash” (KING ABDULAZIZ UNIVERSITY, priority 2017, dated 2018).

Tested on: Salmonella enterica subsp. Enterica serovar Typhimurium (ATCC 29629, TA 1535)
Test: Ames test
Assay type: cell-based
Details: positive control
Text: The Ames test was followed according to a previously reported procedure (Ames et al, 1973; Mortelmans and Zeiger, 2000). Briefly, the test organism Salmonella enterica subsp. Enterica serovar Typhimurium (ATCC® 29629-Strain Designations: TA 1535), an auxotrophic mutant, was provided by ATCC, Manassas, USA. This auxotrophic isolate requires histidine for its growth, due to a mutation in its DNA. Substances to be tested for their mutagenesis, could be added in the histidine-free medium of the test organism, to monitor their ability to reverse back the mutated Salmonella typhimurium to a prototrophic state, enabling it to grow. The anti-bacterial mouthwash was incorporated in the histidine-free medium used in the Ames test, at four different concentrations namely, 1/100×, 1×, 1.5×, and 2× (where X is the dilution used in mouth rinsing experiments), while another batch of the medium was deprived of the Mouthwash substance. Ethidium bromide, an expected positive inducer of mutations in the test organism, was incorporated in another batch of the same histidine-free medium at two concentrations namely, 20 and 200 nmole. The S. Typhimurium was cultured in triplicate onto the 4 differently supplemented media, and on the 5th control medium that was deprived of supplementation, to observe the growth of this test organism. The bacterium was spread over these media with small amounts of histidine that helps in the initiation of the growth, and once this amino acid is depleted, only the mutated cells by the supplemented substance will be able to synthesize their histidine, and to continue their growth. Thus, mutagenicity is determined in this research from the proportion of the average colony forming units formed on triplicate of the supplemented medium with the anti-bacterial mouthwash versus that formed on triplicate of the non-supplemented medium, with the growth on Ethidium bromide acting as a positive control of the test.
The results of the Ames test in relation to reversion of the S. Typhimurium test organism from its auxotrophic to prototrophic nature is shown in Table 4.

Compound: CC[n+]1c(-c2ccccc2)c2cc(N)ccc2c2ccc(N)cc21 [Ethidium bromide]
- Mean % increase in S. Typhimurium CFU count of triplicate relative to mean triplicate count on minimal Histidine-supplemented medium (20 nmol/plate): 0%
- Mean % increase in S. Typhimurium CFU count of triplicate relative to mean triplicate count on minimal Histidine-supplemented medium (20 nmol/plate, listed as Eth): 0.0%
- Mean % increase in S. Typhimurium CFU count of triplicate relative to mean triplicate count on minimal Histidine-supplemented medium (200 nmol/plate, apparent reversion of mutation (P<0.05)): 12.5%
